Broadly, the melting point is the temperature of the solid-liquid transition.

On to `CC(C)(C)NC(=O)NOCC(O)CN1CCCCC1` (centres undefined), for which the melting point is 71 to 73 °C.
The figure for `CCCc1nc2c(N)nc3cc(OCc4ccoc4)ccc3c2s1` is 170 to 171 °C.
In the case of `CCOC(=O)C1=C(N(C)C)N=C(C)C(C(=O)OC)C1c1cccc([N+](=O)[O-])c1` (centres undefined), the melting point came out at 95 °C.
`CCOC(=O)c1cccc(NC(=O)c2ccc(OC)c(Nc3cccc(C(F)(F)F)c3)c2)c1` returned a melting point of 169 to 170 °C.
Under `Cc1cccc(C2=CCN(c3ccc(O)nn3)CC2)c1` stands 179 °C; under `O=[N+]([O-])c1ccccc1COc1cc[nH]n1`, 87 °C.
The figure for `C[C@H](C(=O)c1ccccc1F)n1ccn(-c2ccc(OCC(F)(F)C(F)F)cc2)c1=O` is 71 to 73 °C; for `CCOC(=O)C(=O)CSc1ccc(-c2ccccc2)cc1` it is 154 to 156 °C; for `COc1c(S(N)(=O)=O)cccc1S(=O)(=O)NC(=O)Nc1nc(C)cc(C)n1` it is 218 °C.
Under `CCOC(C)O[C@H]1C(=O)N[C@H]1C1CCCCC1` (some centres undefined) stands 87 to 89 °C.
With `CC(C)(C)n1cc(-c2ccc(S(=O)c3ccccc3)cc2)c2c(N)ncnc21` (centres undefined), the melting point lay in the range of 180 to 182 °C.
Under `COc1ccc(-n2nc(-c3ccc(F)cc3)c(-c3ccncc3)c2-c2c[nH]cn2)cc1` stands 124 to 126 °C; under `CCCn1cc(Cc2ccc(C(=O)OC)cc2OC)c2cc(CCCC(=O)O)ccc21`, 106 to 109 °C; under `CSc1ccc(NS(=O)(=O)c2cccc3c(N(C)C)cccc23)nn1`, 188 to 190 °C.
Consider `O=C(c1ccc(Cl)c(Cl)c1)N1CCC(Br)C(c2ccccc2)=N1` (centres undefined), for which the melting point was 168 to 169 °C.
The figure for `Cc1ncc2c(n1)-c1ccc(Cl)cc1C(c1ccccc1)=NC2` is 120 to 122 °C.
Under `OC(COc1ccccc1)CN1CCN(c2nc3nccc(-c4ccncc4)n3n2)CC1` (centres undefined) stands 143 to 145 °C; under `CCOC(=O)C1CCc2cc(Cc3cnc(N)s3)ccc2C1` (centres undefined), 147 to 149 °C; under `COc1ccc(NC(=O)OCC2(COC(=O)Nc3ccc(OC)cc3)CSc3ccccc3C2=O)cc1`, 58 to 63 °C.
The figure for `OCCCC#Cc1cnc(-c2ccccc2)c(-c2ccccc2)n1` is 88 to 90 °C; for `CN(C)C1CCN(S(=O)(=O)c2cc(C#N)ccc2Oc2cc(F)ccc2F)CC1` it is 154 to 157 °C; for `CC1CCN(CCCC(=O)c2ccc3sc4ccc(C(=O)CCCN5CCC(C)CC5)cc4c3c2)CC1` it is 136 to 138 °C.
The compound `CC(O)Cn1nc(Br)c([N+](=O)[O-])c1NCc1ccccc1` (centres undefined) gave a melting point of 81.3 °C.
Under `O=C(O)Cc1ccc(SCCNC(=O)C2Cc3ccccc3N2S(=O)(=O)c2ccc(-c3cccc(C(F)(F)F)c3)cc2)c(Cl)c1` (centres undefined) stands 70 °C.
Compound `Cn1cc(S(=O)(=O)NCc2ccccc2)c(=O)c2ccc(Cl)cc21` displayed a melting point of 208 to 210 °C.
Under `N#CCCn1cccc1C1=CC(=O)c2ccccc2C1=O` stands 127 to 128 °C; under `CC1=CC(=O)N(c2cc(-n3c(=O)n(C)c(=O)n(CC(=O)OC(C)C)c3=O)c(Cl)cc2F)C1=O`, 110 to 120 °C; under `O=C1CCCc2nc3ccccc3c(NCc3ccc(Cl)cc3)c21`, 162 to 164 °C.
Under `S=P(SC1CCCCC1)(C1CCCCC1)C1CCCCC1` stands 82 to 85 °C.
Under `CSc1ccc(-c2nc(=O)c3ccccc3s2)cn1` stands 168 to 170 °C.
Turning to `COc1cccc(NC(=O)C2=C(O)c3ccc4ccccc4c3S(=O)(=O)N2C)c1`, the melting point lay within 242 to 244 °C.
The figure for `Cc1cc(-n2nc3ccc(Cl)cc3n2)c(O)c(C(C)(C)C)c1` is 138 to 140 °C; for `COc1cccc2c1nc(-c1c(F)cccc1F)n2Cc1ccccc1` it is 139 to 141 °C.
Under `O=[N+]([O-])c1cccnc1N=C=S` stands 115 to 118 °C.

The values above are taken from a melting point compilation (Tetko et al.; mined from patent text by program, amines drawn as free bases though some values may be those of a salt).
